Laboratory results as given in US20090325992A1, “COMPOUND HAVING CYCLIC GROUP BOUND THERETO THROUGH SPIRO BINDING AND USE THEREOF” (ONO PHARMACEUTICAL CO., LTD., priority 2006, published 2009).
Like-named read-outs stand apart in the source and are kept apart here.

Assays:
[1] = rat, in vivo, iv, 1 mg/kg
Experimental: (§1) Measurement of Maximum Plasma Level (Cmax) and Stationary State Distribution Volume (Vss)
(§2) A compound to be evaluated is weighed, dissolved in WellSolve (trade name; manufactured by Celeste Corporation) which is heated to 60° C. and adjusted to 20 mg/mL; thereafter, the test compound is diluted by 10 times with distilled water for injection, and further diluted by 2 times with saline solution, by which intravenously administered solution is eventually made. A compound to be evaluated is dissolved in WellSolve which is heated to 60° C. and adjusted to 50 mg/mL; thereafter, the compound to be evaluated is diluted with distilled water for injection and adjusted to 1 mg/mL. Five compounds (one set) were mixed in the same amount and adjusted to final concentration of 0.2 mg/mL per one compound, by which orally administered solution is eventually made. […] The administration is conducted under fasting conditions; water is freely ingested. In the case of intravenous administration, a 0.35 mL of blood sample is taken from cervical vein by using Heparinized Syringe at 5 minutes, 15 minutes, 30 minutes, 1 hour, 2 hours, 4 hours, 6 hours, 8 hours, and 24 hours after administration. […] The obtained blood is stored in ice, and after centrifugation at 12,000 rpm for 3 minutes, blood plasma is fractionated. In the case of intravenous administration, the blood plasma sample preserved at a temperature of −80° C. is dissolved; inner standard solution (100 μL) and acetonitrile (2 mL) are added to the blood plasma sample (100 μL) and stirred, and the sample is centrifuged at 2,500 rpm for 10 minutes.
(§3) After the supernatant centrifuged is evaporated to dryness by means of a centrifugal concentrator, 67% dimethyl sulfoxide solution (150 μL) is added to the residue and dissolves them again and 20 μL of the solution is analyzed by means of LC/MS/MS.
(§4) Measurement device: Waters 2795 (manufactured by Waters Corporation) Analytical column: Unison UK-C18, 3.0 μm particle size, 2.0 mm×30 mm (manufactured by Imtakt Corporation) Analytical column temperature: Room temperature Flow rate: 200 μL/min Moving bed: 5 mM IPC-PFAA-7 solution/acetonitrile (9/1→1/9)
(§5) Measurement device: Quatro micro API (manufactured by Micromass Communications Inc.) Scan type: MPM
(§6) The monitor ion which was suitable for each sample was selected.
(§7) A portion of the compound to be intravenously administered was subjected to the following treatment. The blood plasma sample preserved at a temperature of −80° C. is dissolved; inner standard solution (50 μL) and acetonitrile (1 mL) are added to the blood plasma sample (50 μL) and stirred, and the sample is centrifuged at 3,000 rpm for 10 minutes. After the supernatant is evaporated to dryness by means of a centrifugal concentrator, the residue was redissolved in water/acetonitrile (1/1) and the solution is analyzed by means of LC/MS/MS under the following conditions.
(§8) Measurement device: 1200 series system (manufactured by Agilent Technologies) Analytical column: Asahipak OOD-50 2D, 2×150 mm (manufactured by Showa Denko K.K.) Analytical column temperature: Room temperature Moving bed: 5 mM IPC—PFAA-7 solution/acetonitrile (gradient) Flow rate: 200 μL/min

[2] = test system: CHL/IU (cell line derived from a Chinese hamster lung); experiment: Phospholipidosis detecting system using fluorescent labeling phospholipid analog (NBD-PE); assay type: cell-based
Experimental: Investigation with Phospholipidosis Detecting System using Fluorescent Labeling Phospholipidosis Analog under Severity Condition (1) Phospholipid Accumulation Measurement 100 μL/well as required (1 dose 2 wells) of cell suspension of CHL/IU (cell line derived from a Chinese hamster lung) (7×10^4 cells/mL) prepared by MEM (minimum essential medium) culture medium was added to a 96-well plate (96-well clear-bottom plate), and cultured for about 24 hours. After culture, the supernatant of the 96-well plate was removed, and the 100 μL/well compounds of each concentration dissolved and suspended in an MEM including 25 μmol/L nitrobenzoxadiazole dipalmitoyl phosphatidylethanolamine (NBD-PE) (hereinafter abbreviated as a NPD-PE medium) were added and treated for about 48 hours. The treatment concentrations of each compound were set to be 5, 50, 100 and 200 μM. The positive control substance was set to be amiodarone hydrochloride, and the treatment concentrations were set to be 1.25, 2.5, 5, 10 and 20 μM. In addition, 5-well untreated controls (only MEM) and 5-well NBD-PE controls (made by means of adding a 1/100 amount of DMSO to the NBD-PE culture medium) were set per compound, and cultured in the same manner. After finishing the culture, the cultures were washed twice with phosphate buffered saline (hereinafter abbreviated as PBS) (−) 100 μL/well, and the MEM (100 μL) was added to all of the treatment wells including two empty wells for WST-1 background controls and cultured for about a half hour. The fluorescence intensities of each well were measured by using a microplate reader (manufactured by Molecular Devices Inc., SPECTRA max M2; the excitation wavelength 485 nm/fluorescence wavelength 535 nm). (2) Analysis Using the average values of each dose×2 wells, a phospholipid increase rate (%) to the NBD-PE control was calculated by using the following calculating formula: Rate of increase of phospholipid accumulation (%)=100×{(test compound fluorescence intensity−non-treated control fluorescence intensity)/(NBD-PE control fluorescence intensity−non-treated control fluorescence intensity)} [Equation 2] (3) Cytotoxicity Assay 96-well plate measured in the phospholipid accumulation measurement was measured by means of Plate Reader (manufactured by Molecular Devices Inc., SPECTRA max M2) with the main wavelength of 450 nm and the correct wavelength of 690 nm to calculate a Pre value. An amount of 5 μL/well of Premix WS T-1 was added to each of the 96-hole plates by which Pre measurement was conducted. After culture for 2 to 4 hours, the 96-well plate was measured as well as the Pre measurement to calculate an Aft value. Then, the background control value was subtracted from the each measured value. A value which was calculated by subtracting the Pre value from the Aft value was used, then the cell growth rate (%) was calculated by using the following calculating formula: Cell growth rate (%)=100×[(test substance OD)/(NBD-PE control OD)] [Equation 3] (4) Determination A test dose that indicated value of 25% or more of the maximum phospholipid accumulation increase rate of amiodarone which was the positive control was determined as positive. In addition, the dose whose cell growth rate was equal to or less than 50% in the cytotoxicity assay was not used for determination of existence or nonexistence of a phospholipidosis inductive effect.

[3] = Measurement of maximum plasma level (Cmax) and stationary state distribution volume (Vss); conditions: male, Crl:CD(SD), rat, iv, 1 mg/kg
Experimental: as §1, §2, §3, §4, §5, §6, §7, §8

[4] = target: T1, CXCR4 (human T cell strain CEM cells) (Homo sapiens, UniProt P61073); experiment: Inhibition of binding human SDF-1 to CEM cells (125I-SDF-1); conditions: 4° C., 60 minutes
T1 construct: a human T cell strain in which CXCR4 is known to be expressed; endogenous in cells; host or cells: CEM cells (human T cell strain)
T1 sequence (P61073 whole entry): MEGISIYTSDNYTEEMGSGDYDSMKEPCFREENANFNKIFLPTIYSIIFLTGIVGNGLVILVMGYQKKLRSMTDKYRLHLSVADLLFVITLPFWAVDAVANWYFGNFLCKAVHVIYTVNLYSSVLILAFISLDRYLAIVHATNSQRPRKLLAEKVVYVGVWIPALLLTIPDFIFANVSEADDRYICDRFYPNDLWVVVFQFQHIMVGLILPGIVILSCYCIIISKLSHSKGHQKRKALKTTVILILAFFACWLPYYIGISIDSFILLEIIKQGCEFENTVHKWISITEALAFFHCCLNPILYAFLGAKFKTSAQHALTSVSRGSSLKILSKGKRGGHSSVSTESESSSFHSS
Experimental: Specifically, as a system of screening a compound that inhibits the binding between SDF-1 and CXCR4, for example a system of measuring the binding between iodine-labeled SDF-1 and a human T cell strain in which CXCR4 is known to be expressed is operable.
Study for Inhibition of Binding Human SDF-1 to CEM Cells
To human T cell strain CEM cells in a binding buffer (containing HEPES and BSA), the test compound and ^125I-SDF-1 (PerkinElmer) were added and the mixture was incubated at 4° C. for 60 minutes. The reacted CEM cells were rapidly filtrated with a GF/B membrane filter plate (Packard) to adsorb. The plate was washed with phosphate buffered saline (hereinafter abbreviated to PBS) three times and then dried. Microscint+20 (Packard) was added thereto. An amount of the radioactivity bound to the CEM cells was measured using Top Count (Packard) and inhibition (%) of the test compound was calculated according to the following equation:
Inhibition={(Et−Ea)/(Et−Ec)}×100 [Equation 1]
Et: Amount of radioactivity when the test compound is not added,
Ec: Amount of radioactivity when non-radioactive SDF-1 (Pepro Tech) is added in an amount of 1,000 times as much as ^125I-SDF-1 as a test compound, and
Ea: Amount of radioactivity when the test compound is added.

[5] = Artificial lipid membrane binding using Biacore S51 system
Experimental: Artificial Lipid Membrane Binding Account by using Biacore® S51 System
10 mM of 1,2-dioleoyl-sn-glycero-3-phosphate monosodium salt (hereinafter abbreviated as DOPA) chloroform solution was evaporated to dryness by means of an aspirator, and 0.6 mL of PBS/5% dimethyl sulfoxide (hereinafter abbreviated as DMSO) was added. The chloroform solution was fully suspended by means of a vortex mixer, and the freezing and thawing were repeated for 5 times. Liposome was created by means of a liposome preparation instrument (manufactured by Avestin Inc.) and two syringes, and was diluted to 0.5 mM with PBS/5% DMSO just prior to immobilization.
(2) Measurement Compound Preparation
38 μl of 1×PBS is added to 2 μl of a DMSO solution (10 mM), and further the 360 μl of 1×PBS/5% DMSO was added and the 50 μM of final concentration in PBS/5% DMSO was prepared and measured.
All of the following analysis used Biacore® S51 system and the measurement conditions were set by Biacore S51 Control Soft.
The measurement temperature was set to be 37° C., and PBS/5% DMSO (pH 7.4 or 6.0) was used as a buffer. Series S Sensor Chip L1 was used for a sensor chip. DOPA was immobilized in one of the measuring spots on the sensor surface and the central spot was used as a reference.
Immobilization of liposome was conducted at a flow rate of 10 μL/min for about 3 minutes and then the compound was added at a flow rate of 30 μL/min and the interaction was measured. The measurement conditions are as follows:
Assay buffer: PBS/5% DMSO (pH 7.4) Measurement temperature: 37° C. Sensor chip: Series S Sensor Chip L1 Flow rate: 10 μL/min at the time of the liposome immobilization; 30 μL/min at the time of the measurement of interaction with the compound Regeneration: 20 mM CHAPS (3-[(3-cholamidopropyl)dimethylammonio]-1-propanesulfonate), isopropylalcohol/aqueous 50 mM sodium hydroxide solution=40/60 (volume ratio) mixture solution (60 seconds)
The data processing was conducted by means of method of Abdiche et al., (Analytical biochemistry, 328, 233-243 (2004)) by using Biacore S51 Evaluation Soft.
Regarding the value of binding response (RU) in which the value of reference was subtracted, it was divided by a sample molecular weight after minute error of the DMSO concentration included in the sample solution was corrected. In addition, the value obtained here was divided by an amount of capture at the time of the cycle because the value obtained here was proportional to the amount of capture of the liposome and the value was multiplied by a million to be considered as a corrected value (Corrected value=1,000,000×RU (test compound)/molecular quantity (test compound) RU (liposome)).
The compound wherein a value of the binding response after the correction was 150 or more was determined as positive.

CC(C)CN1CCC2(CC1)CCN(CCCn1ccnc1CN(CCCC(=O)O)Cc1ncc[nH]1)C2 [Example 22(3), 4-[(1H-imidazol-2-ylmethyl)({1-[3-(8-isobutyl-2,8-diazaspiro[4.5]deca-2-yl)propyl]-1H-imidazol-2-yl}methyl)amino]butanoic acid]
Distribution volume (L/kg) (stationary state distribution volume, Vss) [1]: 0.90 L/kg
Determination (phospholipidosis, NBD-PE system) [2]: Negative

CCC(CC)N1CCC2(CCN(CCCn3ccnc3CN(Cc3ccc(OCC(=O)O)cc3)Cc3ncc[nH]3)C2)CC1 [Example 43, [4-({[(1-{3-[8-(1-ethylpropyl)-2,8-diazaspiro[4.5]deca-2-yl]propyl}-1H-imidazol-2-yl)methyl](1H-imidazol-2-ylmethyl)amino}methyl)phenoxy]acetic acid]
Vd [3]: 0.65 L/kg
IC50 [4]: 4 nM
Rate of increase of phospholipid accumulation (%) (compound dose: 200 μM) ([2]; CHL/IU cells, compound dose 200 μM, about 48 hours, relative to NBD-PE control): 16%
Determination (phospholipidosis, NBD-PE system) ([2]; positive = 25% or more of the maximum increase rate of amiodarone): Negative
Value of binding response (RU) ([5]; DOPA liposome, 50 μM compound, PBS/5% DMSO pH 7.4, 37° C., corrected value): 36.1 RU
Determination (artificial lipid membrane binding) ([5]; positive = corrected binding response 150 or more): Negative
